Conditions: Liquid, Vibrating tube method

CCCC(=O)OCC(COC(=O)CCC)(COC(=O)CCC)COC(=O)CCC [pentaerythritol tetrabutyrate]
Conditions	mass density [kg/m3]
303.16 K, 34848 kPa	1063.1
303.17 K, 281.6 kPa	1042.3
303.17 K, 295.5 kPa	1042.4
303.17 K, 308.6 kPa	1042.3
303.17 K, 338.6 kPa	1042.4
303.17 K, 356.5 kPa	1042.4
303.17 K, 372.3 kPa	1042.3
303.17 K, 389.7 kPa	1042.4
303.17 K, 409.5 kPa	1042.4
303.17 K, 424.5 kPa	1042.4
303.17 K, 439.6 kPa	1042.5
303.17 K, 457.1 kPa	1042.5
303.17 K, 488.2 kPa	1042.3
303.17 K, 509.3 kPa	1042.5
303.17 K, 526.8 kPa	1042.6
303.17 K, 1268.4 kPa	1043
303.17 K, 1312 kPa	1043
303.17 K, 1333.8 kPa	1043
303.17 K, 2851.4 kPa	1044.1
303.17 K, 2920.2 kPa	1044.1
303.17 K, 4808.4 kPa	1045.3
303.17 K, 4819 kPa	1045.4
303.17 K, 4825.7 kPa	1045.3
303.17 K, 4829.2 kPa	1045.3
303.17 K, 4830.8 kPa	1045.2
303.17 K, 4832.3 kPa	1045.3
303.17 K, 4834.4 kPa	1045.4
303.17 K, 4836 kPa	1045.4
303.17 K, 4837.7 kPa	1045.4
303.17 K, 4839.2 kPa	1045.4
303.17 K, 4840.6 kPa	1045.4
303.17 K, 4842.7 kPa	1045.3
303.17 K, 6518.3 kPa	1046.5
303.17 K, 6547.8 kPa	1046.4
303.17 K, 6572.5 kPa	1046.5
303.17 K, 7027.7 kPa	1046.8
303.17 K, 7057 kPa	1046.7
303.17 K, 7087.6 kPa	1046.8
303.17 K, 7117.6 kPa	1046.7
303.17 K, 7147.4 kPa	1046.8
303.17 K, 7177.7 kPa	1046.9
303.17 K, 7213.5 kPa	1046.9
303.17 K, 7243.4 kPa	1046.9
303.17 K, 8394.2 kPa	1047.6
303.17 K, 8419.6 kPa	1047.7
303.17 K, 8440.8 kPa	1047.7
303.17 K, 8462 kPa	1047.7
303.17 K, 8485.6 kPa	1047.7
303.17 K, 9218.9 kPa	1048
303.17 K, 34670 kPa	1063
303.17 K, 34730 kPa	1063.1
303.17 K, 34780 kPa	1063.1
303.17 K, 34833 kPa	1063.2
323.14 K, 3021.5 kPa	1026.7
323.14 K, 3045.8 kPa	1026.8
323.14 K, 3074.9 kPa	1026.9
323.14 K, 3099.4 kPa	1026.9
323.14 K, 3124.1 kPa	1027
323.14 K, 3153.6 kPa	1026.9
323.14 K, 3179.3 kPa	1026.9
323.14 K, 3204.7 kPa	1027
323.14 K, 3230.2 kPa	1027
323.14 K, 3262.8 kPa	1027.1
323.14 K, 3289.7 kPa	1027
323.14 K, 3316.7 kPa	1027.2
323.14 K, 3376.7 kPa	1027.2
323.14 K, 3404.8 kPa	1027.3
323.14 K, 3432.9 kPa	1027.2
323.14 K, 3526.4 kPa	1027.4
323.14 K, 3592.6 kPa	1027.3
323.14 K, 3622.8 kPa	1027.3
323.14 K, 3654 kPa	1027.4
323.14 K, 3691.9 kPa	1027.4
323.14 K, 3723.3 kPa	1027.5
323.14 K, 3755.5 kPa	1027.4
323.14 K, 3794.3 kPa	1027.5
323.14 K, 3827.2 kPa	1027.5
323.14 K, 3860.3 kPa	1027.6
323.14 K, 3900.3 kPa	1027.7
323.14 K, 3935 kPa	1027.6
323.14 K, 3969.1 kPa	1027.6
323.14 K, 4004.6 kPa	1027.7
323.14 K, 4047.6 kPa	1027.8
323.14 K, 4083.9 kPa	1027.7
323.14 K, 4121.4 kPa	1027.7
323.14 K, 4159.5 kPa	1027.8
323.14 K, 4204 kPa	1027.8
323.14 K, 4241.5 kPa	1027.9
323.14 K, 4280.5 kPa	1028
323.14 K, 4319.3 kPa	1027.9
323.14 K, 4366.4 kPa	1028
323.14 K, 4406.1 kPa	1028
323.14 K, 4447.6 kPa	1028.1
323.14 K, 4495.9 kPa	1028
323.14 K, 4536.6 kPa	1028.2
323.14 K, 4587.3 kPa	1028.3
323.14 K, 4629.9 kPa	1028.2
323.14 K, 4673.5 kPa	1028.3
323.14 K, 4708.8 kPa	1028.3
323.14 K, 4783.8 kPa	1028.3
323.14 K, 4863.6 kPa	1028.4
323.14 K, 4981.8 kPa	1028.4
323.14 K, 5097.9 kPa	1028.7
323.14 K, 5295.3 kPa	1028.8
323.14 K, 5295.4 kPa	1028.7
323.14 K, 5295.6 kPa	1028.8
323.14 K, 5487.4 kPa	1028.9
323.14 K, 5504.7 kPa	1029
323.14 K, 5543.7 kPa	1028.9
323.14 K, 12307 kPa	1033.8
323.14 K, 12337 kPa	1033.7
323.14 K, 14077 kPa	1034.9
323.14 K, 14107 kPa	1034.9
323.14 K, 14132 kPa	1034.8
323.14 K, 14159 kPa	1034.9
323.14 K, 14184 kPa	1035
323.14 K, 14777 kPa	1035.3
323.14 K, 16272 kPa	1036.3
323.14 K, 16347 kPa	1036.3
323.14 K, 16415 kPa	1036.4
323.14 K, 16456 kPa	1036.4
323.14 K, 16491 kPa	1036.5
323.14 K, 16525 kPa	1036.4
323.14 K, 16567 kPa	1036.5
323.14 K, 16603 kPa	1036.5
323.14 K, 16638 kPa	1036.5
323.14 K, 16681 kPa	1036.6
323.14 K, 16716 kPa	1036.5
323.14 K, 16912 kPa	1036.7
323.14 K, 16948 kPa	1036.8
323.14 K, 16993 kPa	1036.8
323.14 K, 17030 kPa	1036.8
323.14 K, 17069 kPa	1036.8
323.14 K, 17108 kPa	1036.7
323.14 K, 17153 kPa	1036.9
323.14 K, 17191 kPa	1037
323.14 K, 17229 kPa	1036.9
323.14 K, 17267 kPa	1036.9
323.14 K, 17315 kPa	1036.9
323.14 K, 17354 kPa	1036.9
323.14 K, 17394 kPa	1037
323.14 K, 17441 kPa	1037.1
323.14 K, 17476 kPa	1037
323.14 K, 17519 kPa	1037.1
323.14 K, 17554 kPa	1037.2
323.14 K, 17593 kPa	1037
323.14 K, 17628 kPa	1037.1

Source: the NIST ThermoML archive (doi:10.1021/je060271a)
